One series has as its target JAK1 (Homo sapiens, UniProt P23458). Briefly: ADP-Glo JAK1 kinase assay. In kind it is biochemical. The protocol:
10 mM of (S)—N-(4-(1-(2-cyanoacetyl)-3-methyl-1,2,3,6-tetrahydropyridin-4-yl)-1H-pyrrolo[2,3-b]pyridin-6-yl)cyclopropanecarboxamide (hereinafter, referred to as Compound 1), which is the heterocyclic compound represented by formula II obtained according to Preparation Example 1, was diluted in DMSO to prepare samples at five concentrations (1,000 nM, 200 nM, 40 nM, 8 nM, and […]). 10 mM of ATP and 10 mg/mL of insulin receptor substrate (IRS) were diluted at 1/40 and 1/50, respectively, in 1× kinase buffer. In addition, 222 ng/μL of JAK1 enzyme was diluted at ⅛ in 1× kinase buffer to make a preparation. 1 μL of ATP, 1 μL of IRS, and 1 μL of Compound 1 prepared as above were mixed, after which 2 μL of JAK1 enzyme was finally added and reacted at 30° C. for 40 minutes. At this time, a tube without JAK1 enzyme was prepared for a blank and a tube without Compound 1 was prepared as a positive control group together (a final concentration of samples was 200 nM, 40 nM, 8 nM, 1.6 nM, and 0.32 nM).
Then, 5 μL of ADP-glo was added to each tube and reacted at 30° C. for 40 minutes, after which 10 μL of kinase detection reagent was added thereto and reacted at room temperature for 15 minutes. After 18 μL of the reactant was transferred to a 384 well plate, luminescence was measured using a plate reader.
For orientation: In ADP-Glo the light output rises with the ADP produced.

Series [1] deals with DNCB-induced animal model (NC/Nga mice). Briefly: DNCB-induced atopic dermatitis model (topical). In kind it is in vivo. Particulars: for Reduction of scratching behavior compared to the control group (vehicle): week 4, FIG. 12. The procedure:
NC/Nga mice were anesthetized with isoflurane and the dorsal hair (from the bottom of the ear to the top of the tail) was then removed. The NC/Nga mice were left for 24 hours for recovery of fine wounds on the shaved skin.
After healing, 200 μL of 1%1-chloro-2,4-dinitrobenzene (DNCB) in acetone/olive oil (3:1) was topically applied to the dorsal skin (primary skin application). Secondary skin application was performed after three days for sensitization.
Seven days after the primary skin application, 150 μL of 0.4% DNCB in acetone/olive oil (3:1) was topically applied, and applied to the dorsal skin three times a week for five weeks.
The phosphate of Compound 1 (hereinafter, referred to as a phosphate compound) obtained according to Example 3 was used as a test material, and the test material was treated before applying DNCB from two weeks after the primary skin application. The dosage of the test material was calculated based on a body weight of mice measured on the day of administration, and the test material was topically applied to atopic skin using a glass stick (a total of 56 times twice a day for 28 days, six hours at a treatment interval). 0.5% methylcellulose (0.5% MC) was administered to the control group (vehicle).
Week 6 after the primary skin application, the test animals were autopsied. Specifically, the test animals were anesthetized using isoflurane, and as much blood as possible was drawn from the caudal vena cava with a syringe and stored in a 5 mL vacuum tube containing a blood clot activator. The blood was allowed to stand at room temperature for 15-20 minutes for coagulation and then centrifuged at 3000 rpm for 10 minutes.
Atopic dermatitis scores were rated as none (0), mild (1), moderate (2), and severe (3) for each of the five symptoms (erythema, dryness, skin edema and hematoma, erosion, and keratinization). The total dermatitis score representing clinical severity was defined as the sum of all scores (maximum score: 15). The evaluation was conducted twice a week by the same researcher at the same time.
To evaluate a scratching behavior at week 4, mice were placed in cages and the frequency of scratching was evaluated for 30 minutes.
Quantitative analysis was performed using a serum IgE and histamine with ELISA kit.
After measuring a weight of the spleen and mouse, a spleen-to-body weight ratio (relative organ weight) was calculated.
TARC, TSLP, IL-4, IL-1B and TNF-α were quantified using skin tissue through qRT-PCR.
On the day of autopsy, the skin in 10% neutral buffered formalin solution was analyzed by staining with H & E and toluidine blue.

A short description of series [2]: Hygroscopicity evaluation. The conditions noted are these: for Individual related material: in %. It counts as physicochemical. The text has this: Samples were placed in a glass desiccator in which relative humidity was adjusted to 33%, 53%, 75%, and 93%, and then stored for two and four weeks to be evaluated.
Series [3] is described as follows: Measurement of water solubility. It counts as physicochemical. Particulars: saturated solution shaken at room temperature for 24 hours. The procedure:
A liquid phase was taken out of the solution and filtered using a 0.22 μm PVDF filter. The filtered liquid phase was diluted 10-fold for LC analysis.
LC analysis was performed by the following method.

Sequence of JAK1 (P23458 whole entry, species assumed): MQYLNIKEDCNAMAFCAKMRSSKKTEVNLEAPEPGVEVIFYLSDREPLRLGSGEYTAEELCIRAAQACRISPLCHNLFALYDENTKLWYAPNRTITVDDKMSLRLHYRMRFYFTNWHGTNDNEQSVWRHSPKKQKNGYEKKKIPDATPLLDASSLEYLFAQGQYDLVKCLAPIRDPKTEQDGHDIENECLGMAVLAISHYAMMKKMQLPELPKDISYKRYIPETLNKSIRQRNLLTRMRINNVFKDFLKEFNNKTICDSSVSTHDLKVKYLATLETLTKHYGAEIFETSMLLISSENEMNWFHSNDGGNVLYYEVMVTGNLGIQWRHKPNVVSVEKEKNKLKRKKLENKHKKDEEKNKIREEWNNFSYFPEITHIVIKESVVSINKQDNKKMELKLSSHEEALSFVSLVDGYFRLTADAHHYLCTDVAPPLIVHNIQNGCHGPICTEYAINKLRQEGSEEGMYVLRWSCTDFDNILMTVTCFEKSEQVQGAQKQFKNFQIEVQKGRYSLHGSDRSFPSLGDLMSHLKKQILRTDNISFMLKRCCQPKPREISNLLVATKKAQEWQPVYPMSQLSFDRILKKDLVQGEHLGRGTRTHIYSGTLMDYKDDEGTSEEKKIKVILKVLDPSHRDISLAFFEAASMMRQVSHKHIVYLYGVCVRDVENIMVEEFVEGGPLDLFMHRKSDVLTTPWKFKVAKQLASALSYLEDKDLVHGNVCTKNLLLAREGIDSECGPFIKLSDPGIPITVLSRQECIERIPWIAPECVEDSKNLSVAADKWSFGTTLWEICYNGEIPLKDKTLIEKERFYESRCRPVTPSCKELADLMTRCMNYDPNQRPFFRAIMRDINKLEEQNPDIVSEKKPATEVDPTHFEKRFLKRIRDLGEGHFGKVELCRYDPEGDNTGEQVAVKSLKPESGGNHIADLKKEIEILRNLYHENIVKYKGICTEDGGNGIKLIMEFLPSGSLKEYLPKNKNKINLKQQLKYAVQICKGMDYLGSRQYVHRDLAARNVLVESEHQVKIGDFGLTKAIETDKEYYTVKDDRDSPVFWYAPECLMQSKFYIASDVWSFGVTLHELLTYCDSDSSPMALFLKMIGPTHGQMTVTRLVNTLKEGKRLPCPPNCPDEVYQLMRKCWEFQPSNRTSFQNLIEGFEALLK

In general, IC50 refers to the concentration that gives 50% inhibition. As to `C[C@@H]1CN(C(=O)CC#N)CC=C1c1cc(NC(=O)C2CC2)nc2[nH]ccc12` [Compound 1, (S)—N-(4-(1-(2-cyanoacetyl)-3-methyl-1,2,3,6-tetrahydropyridin-4-yl)-1H-pyrrolo[2,3-b]pyridin-6-yl)cyclopropanecarboxamide], the 50% inhibitory concentration (IC50) on JAK1 (ADP-Glo kinase assay, read-out: IC50, In vitro enzyme JAK1) was 3.8 nM. In addition, on JAK1 (summary of Experimental Examples 1 to 3), the JAK1 inhibitory activity entry was “very excellent JAK1 inhibitory activity”.
Turning to `C[C@@H]1CN(C(=O)CC#N)CC=C1c1cc(NC(=O)C2CC2)nc2[nH]ccc12` [Example 3, (S)—N-(4-(1-(2-cyanoacetyl)-3-methyl-1,2,3,6-tetrahydropyridin-4-yl)-1H-pyrrolo[2,3-b]pyridin-6-yl)cyclopropanecarboxamide], the “Reduction of scratching behavior compared to the control group (vehicle)” value is recorded as “at least 50%” in series [1] (3% phosphate compound) and “at least 30%” in series [1] (dosed groups). The “Skin severity score (clinical atopic dermatitis score)” value in series [1] (FIG. 11) is on record as “significantly reduced”. The Spleen-to-body weight ratio result in series [1] (FIG. 15) is “decreased”. Moreover, in series [1] (FIG. 16), the “Histological properties of atopic dermatitis (skin staining)” value is given as “changes the histological properties of atopic dermatitis”. The “Atopic dermatitis-related cytokines of plasma and skin” value in series [1] (FIGS. 13 and 14) is “reduced”. Further, the “Symptoms of atopic dermatitis” value in series [1] (twice a day for 28 days, FIGS. 11 to 16) is recorded as “ameliorates symptoms of atopic dermatitis”. The Total related material in series [2] (Initial) stood at 0.37%; in series [2] (relative humidity 33%, 2 W) it was 0.43%; in series [2] (relative humidity 33%, 4 W), 0.41%; in series [2] (relative humidity 53%, 2 W), 0.43%; in series [2] (relative humidity 53%, 4 W), 0.35%; in series [2] (relative humidity 75%, 2 W) it was 0.44%. Further, the Total related material in series [2] (relative humidity 75%, 4 W) is 0.39%; in series [2] (relative humidity 93%, 2 W), 0.41%; in series [2] (relative humidity 93%, 4 W) it was 0.33%. For the same molecule, the Water in series [2] (Initial) is 0.61%; in series [2] (relative humidity 33%, 2 W), 0.41%; in series [2] (relative humidity 33%, 4 W) it was 0.53%; in series [2] (relative humidity 53%, 2 W), 0.53%; in series [2] (relative humidity 53%, 4 W) it was 0.66%; in series [2] (relative humidity 75%, 2 W) it was 0.60%. The Water worked out at 0.81% in series [2] (relative humidity 75%, 4 W); 1.17% in series [2] (relative humidity 93%, 2 W); 0.97% in series [2] (relative humidity 93%, 4 W). In addition, the Individual related material in series [2] (Initial) is given as 0.07; in series [2] (relative humidity 33%, 2 W) it was 0.07; in series [2] (relative humidity 33%, 4 W) it was 0.08; in series [2] (relative humidity 53%, 2 W) it was 0.08; in series [2] (relative humidity 53%, 4 W) it was 0.07; in series [2] (relative humidity 75%, 2 W), 0.08. Moreover, the Individual related material in series [2] (relative humidity 75%, 4 W) was found to be 0.07; in series [2] (relative humidity 93%, 2 W), 0.08; in series [2] (relative humidity 93%, 4 W), 0.07. The Water solubility in series [3] worked out at 3900 µg/mL.

For the origin of these results see patent US20240300943A1, “NOVEL SALTS OF HETEROCYCLIC COMPOUND AS PROTEIN KINASE INHIBITOR AND USES THEREOF” (HK INNO.N CORPORATION, priority 2021, published 2024).
